This is an account of results in article PMC10855334, “Molecular and Functional Characterization of Three General Odorant-Binding Protein 2 Genes in Cydia pomonella (Lepidoptera: Tortricidae)” (International Journal of Molecular Sciences, 2024).

Test [1] concerns the target CpomGOBP2a (Cydia pomonella, UniProt J7G4I1). In words: Fluorescence competitive binding assay (1-NPN probe), recombinant CpomGOBP2a. The conditions noted are these: for Ki: 2.0 µM protein and 2.0 µM 1-NPN, 50 mM Tris-HCl pH 7.4, competitor 2-20 µM, read-out: dissolution constants (Ki). The text has this:
(§1) The proteins were recombinantly expressed using an Escherichia coli expression system with an N-His tag. The complete coding regions lacking the signal peptide sequence of CpomGOBP2a, CpomGOBP2b, and CpomGOB2c were subcloned into the NdeI/EcoRI restricted and dephosphorylated pET-28b expression vector. The constructed plasmid was subsequently transformed into E. coli BL21 (DE3) competent cells for further expression. The size and purity of the target proteins were confirmed using sodium dodecyl sulfate-polyacrylamide gel electrophoresis (SDS-PAGE) and Western blot. The proteins were stored at −80 °C for subsequent fluorescence competitive binding experiments.
Fluorescence competitive binding assays were conducted on a Synergy4 (BioTek Instruments, Winooski, VT, USA) microplate reader using the F96 Black ELIAS Plate (Xinyou Biotechnology, Hangzhou, China). Probe 1-NPN and the tested ligands were dissolved in spectrophotometric-grade methanol to generate 1.0 mM stock solutions. The fluorescence probe 1-NPN was excited at 337 nm, and emission spectra were recorded between 390 and 490 nm. Initially, to test the binding constants of 1-NPN to the CpomGOBP2, a 2.0 µM solution of protein in 50 mM Tris-HCl (pH = 7.4) was titrated with 1 mM of 1-NPN to achieve various concentrations. Next, the competitive binding of each odorant (Table 1) was examined using 1-NPN as a fluorescent reporter and the odorant as a competitor. The concentrations of protein and 1-NPN were both 2.0 µM; the odorant was included after the protein and 1-NPN were added into the well of the ELIAS Plate for 2 min. The final concentrations of each competitor were 2, 4, 6, 8, 10, 12, 14, 16, 18, and 20 µM. After 2 min of odorant addition, the fluorescence intensity was measured and documented. The volume of mixed solution in each well was maintained at 250 µL. Each interaction was conducted in triplicate.

Test [2] has as its target CpomGOBP2c (Cydia pomonella). Put plainly: Fluorescence competitive binding assay (1-NPN probe), recombinant CpomGOBP2c. The conditions noted are these: 2.0 µM protein in 50 mM Tris-HCl pH 7.4 titrated with 1-NPN, read-out: dissociation constant with 1-NPN.
From the text: as §1
(§2) Fluorescence competitive binding assays were conducted on a Synergy4 (BioTek Instruments, Winooski, VT, USA) microplate reader using the F96 Black ELIAS Plate (Xinyou Biotechnology, Hangzhou, China). Probe 1-NPN and the tested ligands were dissolved in spectrophotometric-grade methanol to generate 1.0 mM stock solutions. The fluorescence probe 1-NPN was excited at 337 nm, and emission spectra were recorded between 390 and 490 nm. Initially, to test the binding constants of 1-NPN to the CpomGOBP2, a 2.0 µM solution of protein in 50 mM Tris-HCl (pH = 7.4) was titrated with 1 mM of 1-NPN to achieve various concentrations. […] After 2 min of odorant addition, the fluorescence intensity was measured and documented. […]

Test [3] deals with CpomGOBP2b (Cydia pomonella, UniProt J7GAV3). Put plainly: Fluorescence competitive binding assay (1-NPN probe), recombinant CpomGOBP2b. The conditions noted are these: 2.0 µM protein in 50 mM Tris-HCl pH 7.4 titrated with 1-NPN, read-out: dissociation constant with 1-NPN.
Sequence of CpomGOBP2b (J7GAV3 entry or part of it): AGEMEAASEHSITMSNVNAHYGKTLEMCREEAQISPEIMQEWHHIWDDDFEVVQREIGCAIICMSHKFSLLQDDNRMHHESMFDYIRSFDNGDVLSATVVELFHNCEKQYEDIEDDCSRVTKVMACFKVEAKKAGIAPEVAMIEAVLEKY
From the text: as §1, §2

Sequence of CpomGOBP2a (J7G4I1 entry or part of it): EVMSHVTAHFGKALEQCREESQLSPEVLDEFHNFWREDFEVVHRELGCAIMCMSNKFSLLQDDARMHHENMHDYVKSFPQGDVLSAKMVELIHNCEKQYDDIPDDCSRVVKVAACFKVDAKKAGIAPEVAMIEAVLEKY
Sequence of CpomGOBP2c (Cydia pomonella) (J7GAV3 entry or part of it): as the sequence (J7GAV3 entry or part of it) above

In the case of `c1ccc(Nc2cccc3ccccc23)cc1` [1-NPN], the Kd in test [1] (2.0 µM protein in 50 mM Tris-HCl pH 7.4 titrated with 1-NPN, read-out: dissociation constant with 1-NPN) came to 12.6 µM; in test [2], 18.9 µM; in test [3] it was 27.5 µM.

Broadly, the Ki is the dissociation constant of the complex between target and ligand, obtained from inhibition or displacement. As for `CCCCCCCC(=O)OCCCC` [butyl octanoate], the Ki in test [1] was 8.6 µM.

For `C/C=C/C=C/CCCCCCCO` [codlemone], the Ki in test [1] is 22.7 µM.

Regarding `CCCCC/C=C\C=C\C(=O)OCC` [ethyl (2E,4Z)-deca-2,4-dienoate], the Ki in test [1] turned out to be 9.15 µM.

As for `CC(=O)CC/C=C(\C)CCC=C(C)C` [geranylacetone], in test [1], the Ki was 22.9 µM.
